The test system of series [1] is mouse ascitic leukemia p388. The series can be described thus: Antitumor activity test (mouse ascitic leukemia p388 i.p. in BDF1-strain male mice). Format: in vivo. The following applies: for Prolongation of survival time, %: ip; for Therapeutic index: Table 2, toxic dose/effective dose. How it is done: 10^6 Cells of mouse ascitic leukemia p388 were administered intraperitoneally into each member of the groups of 8 to 12 BDF1 -strain male mice, each 18 to 20 g in body weight. After 24 hr from the administration, a test compound was intraperitoneally administered to each member of the test group in a predetermined dose once a day for 4 consecutive days. Days elapsed until death of the test animal were counted for each mouse. To each member of the control group, a physiological saline solution was administered. The average survival period of the animal was represented by mean survival time. The prolongation of survival time, indicative of the effectiveness of a test compound, was calculated by the following equation. [formula] The therapeutic index was calculated by the following equation. [formula]

Series [2] can be described thus: in vivo. The conditions noted are these: mouse, ip. How it is done:
A test compound was dissolved in dimethyl sulfoxide and the solution was diluted to 50-fold with a physiological saline solution. This original solution was serially diluted at a common ratio of 1.15. Each resulting solution was administered intraperitoneally to groups of 10 to 15 dd-strain male mice, each 18 to 20 g in body weight. […] The LD50 was calculated from the number of dead mice of each group according to the Probit method.

For series [3] the following is noted: already known; cited from earlier work.
For series [4] the following is noted: already known; cited from earlier work. This is another data set of the same source.
Where [5] appears, read: Table 1, i.p., dd-strain male mice, 3 weeks, read-out: LD50.
[6] abbreviates: Table 2, i.p., dd-strain male mice, 3 weeks, read-out: LD50.

Here are results for 18 molecules from patent US4587052A, “1H-pyrrolo-[2,1-C][1,4]benzodiazepine-2-acrylamide compounds having antitumor activity” (priority 1983, dated 1986).

Like-named read-outs stand apart in the source and are kept apart here.

Take `Cc1ccc2c(c1OC(=O)CCCC(=O)O)NC(O)C1CC(/C=C/C(N)=O)=CN1C2=O` (stereo not drawn) [COCH2 CH2 CH2COOK, 5,10,11,11a-tetrahydro-9-(4-carboxybutanoyloxy)-11-hydroxy-8-methyl-5-oxo-1H-pyrrolo-[2,1-C][1,4]-benzodiazepine-2-acrylamide]: in series [1] (30 mg/kg), the “Prolongation of survival time, %” value is recorded as 185%. The median lethal dose (LD50) at 504 h in series [2] (setting [5]) is 151 mg/kg.
Regarding `Cc1ccc2c(c1OCc1ccccc1C#N)NC(O)C1CC(/C=C/C(N)=O)=CN1C2=O` (stereo not drawn) [5,10,11,11a-tetrahydro-9-(2-cyanobenzyloxy)-11-hydroxy-8-methyl-5-oxo-1H-pyrrolo-[2,1-C][1,4]benzodiazepine-2-acrylamide], in series [1], the Therapeutic index stood at 73.3. The same molecule came in with an LD50 at 504 h in series [2] of 120 mg/kg.
On to `Cc1ccc2c(c1OC(=O)COCC(=O)O)NC(O)C1CC(/C=C/C(N)=O)=CN1C2=O` (stereo not drawn) [COCH2OCH2COOK, 5,10,11,11a-tetrahydro-9-(4-carboxy-3-oxabutanoyloxy)-11-hydroxy-8-methyl-5-oxo-1H-pyrrolo-[2,1-C][1,4]-benzodiazepine-2-acrylamide], for which the “Prolongation of survival time, %” value in series [1] (30 mg/kg) was found to be 181.2%. The LD50 at 504 h in series [2] (setting [5]) was 160 mg/kg.
Regarding `Cc1ccc2c(c1O)NC(O)C1CC(/C=C/C(N)=O)=CN1C2=O` (stereo not drawn) [PBA, 5,10,11,11a-tetrahydro-9,11-dihydroxy-8-methyl-5-oxo-1H-pyrrolo-[2,1-C][1,4]-benzodiazepine-2-acrylamide, reference compound], the Therapeutic index in series [1] amounted to 36.5. In addition, in series [2], the LD50 at 504 h came to 0.73 mg/kg. Moreover, the “antibacterial activity (in words)” value in series [3] is on record as “have an antibacterial activity”. The “antitumor activity (in words)” value in series [4] is listed as “an antitumor activity”.
In the case of `COC1Nc2c(ccc(C)c2OCC(=O)O)C(=O)N2C=C(/C=C/C(N)=O)CC12` (stereo not drawn) [CH2 COONa, 5,10,11,11a-tetrahydro-9-carboxymethoxy-11-methoxy-8-methyl-5-oxo-1H-pyrrolo-[2,1-C][1,4]benzodiazepine-2-acrylamide], the Therapeutic index in series [1] was 88.5. The same molecule gave an LD50 at 504 h in series [2] of 102 mg/kg.
Regarding `CCCCCCCCCC(CC(=O)Oc1c(C)ccc2c1NC(O)C1CC(C=CC(N)=O)=CN1C2=O)C(=O)O` (stereo not drawn) [Table 1 entry 4 (R^1 not printed), 5,10,11,11a-tetrahydro-9-(3-carboxydodecanoyloxy)-11-hydroxy-8-methyl-5-oxo-1H-pyrrolo-[2,1-C][1,4]-benzodiazepine-2-acrylamide], the 50% lethal dose (LD50) at 504 h in series [2] (setting [5]) amounted to 122 mg/kg.
In turn, `COC1Nc2c(ccc(C)c2OCCc2ccc(C(=O)O)cc2)C(=O)N2C=C(/C=C/C(N)=O)CC12` (stereo not drawn) [5,10,11,11a-tetrahydro-9-[2-(4-carboxyphenyl)-ethoxy]-11-methoxy-8-methyl-5-oxo-1H-pyrrolo-[2,1-C][1,4]benzodiazepine-2-acrylamide] yielded a Therapeutic index in series [1] of 82.3. The “Prolongation of survival time, %” value in series [1] (10 mg/kg) stood at 165%. Also, the LD50 at 504 h in series [2] (setting [6]) was determined as 128 mg/kg.
Turning to `Cc1ccc2c(c1OCCCN)NC(O)C1CC(/C=C/C(N)=O)=CN1C2=O` (stereo not drawn) [(CH2)3 NH2, 5,10,11,11a-tetrahydro-9-(3-aminopropoxy)-11-hydroxy-8-methyl-5-oxo-1H-pyrrolo[2,1-C][1,4]benzodiazepine-2-acrylamide], the Therapeutic index in series [1] is 93.5. In series [2], this molecule showed an LD50 at 504 h of 103 mg/kg.
The molecule `CCC(CCCN)Oc1c(C)ccc2c1NC(OC)C1CC(/C=C/C(N)=O)=CN1C2=O` (stereo not drawn) [5,10, 11, 11a-tetrahydro-9-(4-amino-1-ethylpropoxy)-11-methoxy-8-methyl-5-oxo-1H-pyrrolo-[2,1-C][1,4]benzodiazepine-2-acrylamide] registered a Therapeutic index in series [1] of 78.4. Moreover, in series [2] (setting [6]), the LD50 at 504 h stood at 115 mg/kg.
In the case of `COC1Nc2c(ccc(C)c2OC(=O)c2ccccc2C(=O)O)C(=O)N2C=C(C=CC(N)=O)CC12` (stereo not drawn) [5,10,11,11a-tetrahydro-9-(2-carboxyphenylcarbonyloxy)-11-methoxy-8-methyl-5-oxo-1H-pyrrolo-[2,1-C][1,4]-benzodiazepine-2-acrylamide], the “Prolongation of survival time, %” value in series [1] (30 mg/kg) was determined as 130.2%. Moreover, the LD50 at 504 h in series [2] (setting [5]) came out at 86.9 mg/kg.
On to `Cc1ccc2c(c1OC(=O)CCC(=O)O)NC(O)C1CC(/C=C/C(N)=O)=CN1C2=O` (stereo not drawn) [COCH2 CH2COOK, 5,10,11,11a-tetrahydro-9-(3-carboxypropanoyloxy)-11-hydroxy-8-methyl-5-oxo-1H-pyrrolo[2,1-C][1,4]-benzodiazepine-2-acrylamide], for which the “Prolongation of survival time, %” value in series [1] (30 mg/kg) came out at 160%. The LD50 at 504 h in series [2] came out at 120 mg/kg.
For `COC1Nc2c(ccc(C)c2OC(=O)c2cccc([N+](=O)[O-])c2C(=O)O)C(=O)N2C=C(C=CC(N)=O)CC12` (stereo not drawn) [5,10,11,11a-tetrahydro-9-(2-carboxy-3-nitrophenylcarbonyloxy)-11-methoxy-8-methyl-5-oxo-1H-pyrrolo-[2,1-C][1,4]-benzodiazepine-2-acrylamide], the “Prolongation of survival time, %” value in series [1] (30 mg/kg) is 152%. The LD50 at 504 h in series [2] (setting [5]) stood at 95 mg/kg.
As for `Cc1ccc2c(c1OCCC#N)NC(O)C1CC(/C=C/C(N)=O)=CN1C2=O` (stereo not drawn) [(CH2)2 CN, 5,10,11,11a-tetrahydro-9-(2-cyanoethoxy)-11-hydroxy-8-methyl-5-oxo-1H-pyrrolo-[2,1-C][1,4]benzodiazepine-2-acrylamide], the Therapeutic index in series [1] worked out at 103.8. Also, the LD50 at 504 h in series [2] (setting [6]) is 118 mg/kg.
With `Cc1ccc2c(c1OC(=O)CCCCC(=O)O)NC(O)C1CC(/C=C/C(N)=O)=CN1C2=O` (stereo not drawn) [COCH2 CH2 CH2 CH2COOK, 5,10,11,11a-tetrahydro-9-(5-carboxypentanoyloxy)-11-hydroxy-8-methyl-5-oxo-1H-pyrrolo-[2,1-C][1,4]-benzodiazepine-2-acrylamide], the “Prolongation of survival time, %” value in series [1] (30 mg/kg) stood at 172.5%. Moreover, in series [2] (setting [5]), the LD50 at 504 h was 157 mg/kg.
`Cc1ccc2c(c1OCCCC#N)NC(O)C1CC(/C=C/C(N)=O)=CN1C2=O` (stereo not drawn) [(CH2)3 CN, 5,10,11,11a-Tetrahydro-9-(3-cyanopropoxy)-11-hydroxy-8-methyl-5-oxo-1H-pyrrolo-[2,1-C][1,4]benzodiazepine-2-acrylamide] yielded a Therapeutic index in series [1] of 95.2. In addition, in series [1] (10 mg/kg), the “Prolongation of survival time, %” value is 188%. The LD50 at 504 h in series [2] (setting [6]) amounted to 110 mg/kg.
With `Cc1ccc2c(c1O)N=CC1CC(/C=C/C(N)=O)=CN1C2=O` (stereo not drawn) [P'B'A', 5,11,11a-trihydro-9-hydroxy-8-methyl-5-oxo-1H-pyrrolo[2,1-C][1,4]benzodiazepine-2-acylamide], the “antibacterial activity (in words)” value in series [3] is listed as “have an antibacterial activity”. Moreover, the “antitumor activity (in words)” value in series [4] was “an antitumor activity”.
For the molecule `CC(=O)SC(CC(=O)Oc1c(C)ccc2c1NC(O)C1CC(/C=C/C(N)=O)=CN1C2=O)C(=O)O` (stereo not drawn) [5,10,11,11a-tetrahydro-9-(3-carboxy-3-S-acetylmercaptopropanoyloxy)-11-hydroxy-8-methyl-5-oxo-1H-pyrrolo-[2,1-C][1,4]-benzodiazepine-2-acrylamide], in series [2] (setting [5]), the LD50 at 504 h worked out at 138 mg/kg.
For `COC1Nc2c(ccc(C)c2OCCC(=O)O)C(=O)N2C=C(/C=C/C(N)=O)CC12` (stereo not drawn) [CH2 CH2 COOK, 5,10,11,11a-tetrahydro-9-(2-carboxyethoxy)-11-methoxy-8-methyl-5-oxo-1H-pyrrolo-[2,1-C][1,4]benzodiazepine-2-acrylamide], the Therapeutic index in series [1] amounted to 72.4. Further, the “Prolongation of survival time, %” value in series [1] (10 mg/kg) was found to be 172%. This molecule also yielded an LD50 at 504 h in series [2] of 105 mg/kg.
